In ChEMBL document CHEMBL5055633, “Amphipathic Barbiturates as Mimics of Antimicrobial Peptides and the Marine Natural Products Eusynstyelamides with Activity against Multi-resistant Clinical Isolates” (J Med Chem, 2021):

Key:
Enterococcus faecium [1] = assay: Antimicrobial activity against extended spectrum-lactamase-carbapenemas producing Enterococcus faecium strain 50901530 assessed as reduction in bacterial growth incubated for 48 hrs by microdilution method; assay type: functional
Pseudomonas aeruginosa [2] = assay: Antimicrobial activity against Pseudomonas aeruginosa PAO1 assessed as reduction in bacterial growth incubated for 48 hrs by microdilution susceptibility test; assay type: functional
Enterococcus faecium [3] = assay: Antimicrobial activity against extended spectrum-lactamase-carbapenemas producing Enterococcus faecium strain K36-18 assessed as reduction in bacterial growth incubated for 48 hrs by microdilution method; assay type: functional
Acinetobacter baumannii [4] = assay: Antimicrobial activity against oxacillinase-58 producing Acinetobacter baumannii K12-21 assessed as reduction in bacterial growth incubated for 48 hrs by microdilution method; assay type: functional
Enterococcus faecium [5] = assay: Antimicrobial activity against extended spectrum-lactamase-carbapenemas producing Enterococcus faecium strain 50673722 assessed as reduction in bacterial growth incubated for 48 hrs by microdilution method; assay type: functional
Pseudomonas aeruginosa [6] = assay: Antimicrobial activity against verona integron-encoded metallo-beta-lactamase producing Pseudomonas aeruginosa 50692520 assessed as reduction in bacterial growth incubated for 48 hrs by microdilution method; assay type: functional
MRC5 = assay: Cytotoxicity against human MRC5 cells assessed as reduction in cell viability incubated for 24 hrs by colorimetric tetrazolium assay; assay type: functional, cell-based; conditions: MRC5, 24 h
Staphylococcus aureus [7] = assay: Antimicrobial activity against extended spectrum-lactamase-carbapenemas producing Staphylococcus aureus N315 assessed as reduction in bacterial growth incubated for 48 hrs by microdilution method; assay type: functional
Pseudomonas aeruginosa [8] = assay: Antimicrobial activity against verona integron-encoded metallo-beta-lactamase-2 producing Pseudomonas aeruginosa K34-7 assessed as reduction in bacterial growth incubated for 48 hrs by microdilution method; assay type: functional
Acinetobacter baumannii [9] = assay: Antimicrobial activity against oxacillinase-23 producing Acinetobacter baumannii K63-58 assessed as reduction in bacterial growth incubated for 48 hrs by microdilution method; assay type: functional
Escherichia coli [10] = assay: Antimicrobial activity against verona integron-encoded metallo-beta-lactamase-29-producing Escherichia coli 50639799 assessed as reduction in bacterial growth incubated for 48 hrs by microdilution method; assay type: functional
Staphylococcus aureus [11] = assay: Antimicrobial activity against extended spectrum-lactamase-carbapenemas producing Staphylococcus aureus strain 85/2082 assessed as reduction in bacterial growth incubated for 48 hrs by microdilution method; assay type: functional
[12] = Antimicrobial activity against New Delhi metallo-beta lactamase-1 and oxacillinase -181 producing Klebsiella pneumoniae 50531633 assessed as reduction in bacterial growth incubated for 48 hrs by microdilution method; assay type: functional
Escherichia coli [13] = assay: Antimicrobial activity against oxacillinase-producing Escherichia coli 50579417 assessed as reduction in bacterial growth incubated for 48 hrs by microdilution method; assay type: functional
[14] = Antimicrobial activity against New Delhi metallo-beta lactamase-1 Klebsiella pneumoniae K66-45 assessed as reduction in bacterial growth incubated for 48 hrs by microdilution method; assay type: functional
[15] = Antimicrobial activity against oxacillinase-245 producing Klebsiella pneumoniae 50625602 assessed as reduction in bacterial growth incubated for 48 hrs by microdilution method; assay type: functional
Escherichia coli [16] = assay: Antimicrobial activity against imipenem-type carbapenemase-26 producing Escherichia coli 50857972 assessed as reduction in bacterial growth incubated for 48 hrs by microdilution method; assay type: functional
Enterococcus faecium [17] = assay: Antimicrobial activity against extended spectrum-lactamase-carbapenemas producing Enterococcus faecium strain TUH.50-22 assessed as reduction in bacterial growth incubated for 48 hrs by microdilution method; assay type: functional
Pseudomonas aeruginosa [18] = assay: Antimicrobial activity against imipenem-type carbapenemase-14 producing Pseudomonas aeruginosa K44-24 assessed as reduction in bacterial growth incubated for 48 hrs by microdilution method; assay type: functional
HepG2 = assay: Cytotoxicity against human HepG2 cells assessed as reduction in cell viability incubated for 24 hrs by colorimetric tetrazolium assay; assay type: functional, cell-based; conditions: HepG2, 24 h
Escherichia coli [19] = assay: Antimicrobial activity against New Delhi metallo-beta lactamase-1 producing Escherichia coli 50739822 assessed as reduction in bacterial growth incubated for 48 hrs by microdilution method; assay type: functional
Acinetobacter baumannii [20] = assay: Antimicrobial activity against oxacillinase-23 producing Acinetobacter baumannii K44-35 assessed as reduction in bacterial growth incubated for 48 hrs by microdilution method; assay type: functional
Pseudomonas aeruginosa [21] = assay: Antimicrobial activity against New Delhi metallo-beta lactamase-1 producing Pseudomonas aeruginosa 50692172 assessed as reduction in bacterial growth incubated for 48 hrs by microdilution method; assay type: functional
[22] = tested on: Corynebacterium glutamicum; assay: Antimicrobial activity against Corynebacterium glutamicum ATCC 13032 assessed as reduction in bacterial growth incubated for 48 hrs by microdilution susceptibility test; assay type: functional
Escherichia coli [23] = assay: Antimicrobial activity against Escherichia coli ATCC 25922 assessed as reduction in bacterial growth incubated for 48 hrs by microdilution susceptibility test; assay type: functional
[24] = Antimicrobial activity against verona integron-encoded metallo-beta-lactamase -1 producing Klebsiella pneumoniae 50667959 assessed as reduction in bacterial growth incubated for 48 hrs by microdilution method; assay type: functional
[25] = Antimicrobial activity against carbapenemase producing Klebsiella pneumoniae K47-25 assessed as reduction in bacterial growth incubated for 48 hrs by microdilution method; assay type: functional
Enterococcus faecium [26] = assay: Antimicrobial activity against extended spectrum-lactamase-carbapenemas producing Enterococcus faecium strain 50758899 assessed as reduction in bacterial growth incubated for 48 hrs by microdilution method; assay type: functional
Escherichia coli [27] = assay: Antimicrobial activity against New Delhi metallo-beta lactamase-1 producing Escherichia coli 50676002 assessed as reduction in bacterial growth incubated for 48 hrs by microdilution method; assay type: functional
Staphylococcus aureus [28] = assay: Antimicrobial activity against extended spectrum-lactamase-carbapenemas producing Staphylococcus aureus NCTC 10442 assessed as reduction in bacterial growth incubated for 48 hrs by microdilution method; assay type: functional
Staphylococcus aureus [29] = assay: Antimicrobial activity against Staphylococcus aureus ATCC 9144 assessed as reduction in bacterial growth incubated for 48 hrs by microdilution susceptibility test; assay type: functional
Staphylococcus aureus [30] = assay: Antimicrobial activity against extended spectrum-lactamase-carbapenemas producing Staphylococcus aureus strain WIS assessed as reduction in bacterial growth incubated for 48 hrs by microdilution method; assay type: functional
[31] = Hemolytic activity in human erythrocytes incubated for 1 hr by microplate reader; assay type: functional, cell-based; conditions: erythrocyte
Acinetobacter baumannii [32] = assay: Antimicrobial activity against oxacillinase-23 producing Acinetobacter baumannii K47-42 assessed as reduction in bacterial growth incubated for 48 hrs by microdilution method; assay type: functional
Pseudomonas aeruginosa [33] = assay: Antimicrobial activity against verona integron-encoded metallo-beta-lactamase-4 producing Pseudomonas aeruginosa K34-73 assessed as reduction in bacterial growth incubated for 48 hrs by microdilution method; assay type: functional
Staphylococcus aureus [34] = assay: Antimicrobial activity against extended spectrum-lactamase-carbapenemas producing Staphylococcus aureus strain IHT 99040 assessed as reduction in bacterial growth incubated for 48 hrs by microdilution method; assay type: functional
Acinetobacter baumannii [35] = assay: Antimicrobial activity against oxacillinase-24 producing Acinetobacter baumannii K55-13 assessed as reduction in bacterial growth incubated for 48 hrs by microdilution method; assay type: functional

## N=C(N)NCCCCN1C(=O)N(CCCCNC(=N)N)C(=O)C(Cc2cc(C(F)(F)F)cc(C(F)(F)F)c2)(Cc2cc(C(F)(F)F)cc(C(F)(F)F)c2)C1=O.O=C(O)C(F)(F)F.O=C(O)C(F)(F)F
Enterococcus faecium [1]
  MIC: 2 µg/mL
Pseudomonas aeruginosa [2]
  MIC: 8 µg/mL
Enterococcus faecium [3]
  MIC: 4 µg/mL
Acinetobacter baumannii [4]
  MIC: 16 µg/mL
Enterococcus faecium [5]
  MIC: 2 µg/mL
Pseudomonas aeruginosa [6]
  MIC: 16 µg/mL
MRC5
  IC50: 29 µg/mL
Staphylococcus aureus [7]
  MIC: 2 µg/mL
Pseudomonas aeruginosa [8]
  MIC: 16 µg/mL
Acinetobacter baumannii [9]
  MIC: 16 µg/mL
Escherichia coli [10]
  MIC: 4 µg/mL
Staphylococcus aureus [11]
  MIC: 2 µg/mL
[12]
  MIC: 16 µg/mL
Escherichia coli [13]
  MIC: 8 µg/mL
[14]
  MIC: 16 µg/mL
[15]
  MIC: 8 µg/mL
Escherichia coli [16]
  MIC: 4 µg/mL
Enterococcus faecium [17]
  MIC: 2 µg/mL
Pseudomonas aeruginosa [18]
  MIC: 16 µg/mL
HepG2
  IC50: 19 µg/mL
Escherichia coli [19]
  MIC: 8 µg/mL
Acinetobacter baumannii [20]
  MIC: 16 µg/mL
Pseudomonas aeruginosa [21]
  MIC: 16 µg/mL
[22]
  MIC: 2 µg/mL
Escherichia coli [23]
  MIC: 2 µg/mL
[24]
  MIC: 16 µg/mL
[25]
  MIC: 16 µg/mL
Enterococcus faecium [26]
  MIC: 4 µg/mL
Escherichia coli [27]
  MIC: 4 µg/mL
Staphylococcus aureus [28]
  MIC: 2 µg/mL
Staphylococcus aureus [29]
  MIC: 2 µg/mL
Staphylococcus aureus [30]
  MIC: 2 µg/mL
[31]
  EC50: 98 µg/mL
Acinetobacter baumannii [32]
  MIC: 16 µg/mL
Pseudomonas aeruginosa [33]
  MIC: 16 µg/mL
Staphylococcus aureus [34]
  MIC: 2 µg/mL
Acinetobacter baumannii [35]
  MIC: 16 µg/mL

## CC(C)(C)c1ccc(CC2(Cc3ccc(C(C)(C)C)cc3)C(=O)N(CCCCNC(=N)N)C(=O)N(CCCCNC(=N)N)C2=O)cc1.O=C(O)C(F)(F)F.O=C(O)C(F)(F)F
Enterococcus faecium [1]
  MIC: 4 µg/mL
Pseudomonas aeruginosa [2]
  MIC: 4 µg/mL
Enterococcus faecium [3]
  MIC: 2 µg/mL
Acinetobacter baumannii [4]
  MIC: 4 µg/mL
Enterococcus faecium [5]
  MIC: 2 µg/mL
Pseudomonas aeruginosa [6]
  MIC: 16 µg/mL
MRC5
  IC50: 14 µg/mL
Staphylococcus aureus [7]
  MIC: 2 µg/mL
Pseudomonas aeruginosa [8]
  MIC: 16 µg/mL
Acinetobacter baumannii [9]
  MIC: 4 µg/mL
Escherichia coli [10]
  MIC: 4 µg/mL
Staphylococcus aureus [11]
  MIC: 2 µg/mL
[12]
  MIC: 4 µg/mL
Escherichia coli [13]
  MIC: 4 µg/mL
[14]
  MIC: 4 µg/mL
[15]
  MIC: 4 µg/mL
Escherichia coli [16]
  MIC: 4 µg/mL
Enterococcus faecium [17]
  MIC: 2 µg/mL
Pseudomonas aeruginosa [18]
  MIC: 16 µg/mL
HepG2
  IC50: 28 µg/mL
Escherichia coli [19]
  MIC: 4 µg/mL
Acinetobacter baumannii [20]
  MIC: 8 µg/mL
Pseudomonas aeruginosa [21]
  MIC: 16 µg/mL
[22]
  MIC: < 0.13 µg/mL
Escherichia coli [23]
  MIC: 2 µg/mL
[24]
  MIC: 16 µg/mL
[25]
  MIC: 4 µg/mL
Enterococcus faecium [26]
  MIC: 2 µg/mL
Escherichia coli [27]
  MIC: 4 µg/mL
Staphylococcus aureus [28]
  MIC: 2 µg/mL
Staphylococcus aureus [29]
  MIC: 1 µg/mL
Staphylococcus aureus [30]
  MIC: 2 µg/mL
[31]
  EC50: 77 µg/mL
Acinetobacter baumannii [32]
  MIC: 8 µg/mL
Pseudomonas aeruginosa [33]
  MIC: 8 µg/mL
Staphylococcus aureus [34]
  MIC: 2 µg/mL
Acinetobacter baumannii [35]
  MIC: 8 µg/mL
